Test results: ChEMBL document CHEMBL1817609, “SAR studies of 4-pyridyl heterocyclic anilines that selectively induce autophagic cell death in von Hippel-Lindau-deficient renal cell carcinoma cells” (Bioorg Med Chem, 2011)
Calls of active or inactive are those of the source. No cut-off for these calls is given here.

Legend:
[1] = Growth inhibition of human RCC4 cells after 4 days by XTT assay; type: functional, cell-based; settings: RCC4, 96 h
[2] = Growth inhibition of human RCC4/VHL cells after 4 days by XTT assay; type: functional, cell-based; settings: 96 h
RCC4 = assay: Induction of autophagy in human RCC4 cells assessed as formation of intracytoplasmic vacuoles at 5 uM after 24 hrs by phase contrast microscopy; type: functional, cell-based
[3] = Selectivity ratio IC50 for human RCC4/VHL cells to IC50 for human RCC4 cells; type: functional

## Cc1cccc(Nc2nc(-c3ccnc(-c4cc[nH]n4)c3)cs2)c1
[1]; read-out: IC50
  IC50: 0.48 µM
[1]; read-out: pIC50 (converted)
  IC50: 0.49 µM
[2]
  IC50: 20 µM
RCC4
  Activity: Active

## Cc1cccc(Nc2nc(-c3ccncc3)cs2)c1
[3]
  Ratio IC50: 19
[1]; read-out: IC50
  IC50: 2.1 µM
[1]; read-out: pIC50 (converted)
  IC50: 2.14 µM
[2]
  IC50: 40 µM
RCC4
  Activity: Active

## Cc1cccc(Nc2nc(-c3ccncc3OCCCN(C)C)cs2)c1
[3]
  Ratio IC50: 7.4
[1]; read-out: IC50
  IC50: 2.7 µM
[1]; read-out: pIC50 (converted)
  IC50: 2.75 µM
[2]
  IC50: 20.2 µM
RCC4
  Activity: Active

## Cc1cccc(Nc2nc(-c3ccncc3C#CCN3CCOCC3)cs2)c1
[3]
  Ratio IC50: 4
[1]; read-out: IC50
  IC50: 0.57 µM
[1]; read-out: pIC50 (converted)
  IC50: 0.575 µM
[2]
  IC50: 2.3 µM
RCC4
  Activity: Active

## Cc1cccc(Nc2nc(-c3ccncc3-c3ccncc3)cs2)c1
[3]
  Ratio IC50: 2.5
[1]; read-out: IC50
  IC50: 13.8 µM
[1]; read-out: pIC50 (converted)
  IC50: 13.8 µM
[2]
  IC50: 34 µM

## Cc1cccc(Nc2nc(-c3ccnc(-c4cnn(Cc5ccccc5)c4)c3)cs2)c1
[3]
  Ratio IC50: 30
[1]; read-out: IC50
  IC50: 2.2 µM
[1]; read-out: pIC50 (converted)
  IC50: 2.24 µM
[2]
  IC50: 66.1 µM
RCC4
  Activity: Active

## Cc1cccc(Nc2cccc(-c3ccncc3)c2)c1
[3]
  Ratio IC50: 1
[1]; read-out: IC50
  IC50: 36.9 µM
[1]; read-out: pIC50 (converted)
  IC50: 37.2 µM
[2]
  IC50: 38.1 µM

## c1ccc(Nc2nc(-c3ccncc3)cs2)cc1
[3]
  Ratio IC50: >10
[1]; read-out: IC50
  IC50: 7 µM
[1]; read-out: pIC50 (converted)
  IC50: 7.08 µM
[2]
  IC50: > 70 µM

## Cc1cccc(Nc2nc(-c3ccnc(NCCN4CCOCC4)c3)cs2)c1
[3]
  Ratio IC50: 2.2
[1]; read-out: IC50
  IC50: 3.7 µM
[1]; read-out: pIC50 (converted)
  IC50: 3.72 µM
[2]
  IC50: 8 µM

## Cc1cccc(Nc2nc(-c3ccnc(-c4cnn(C)c4)c3)cs2)c1
[3]
  Ratio IC50: 1.6
[1]; read-out: IC50
  IC50: 5.2 µM
[1]; read-out: pIC50 (converted)
  IC50: 5.25 µM
[2]
  IC50: 8.1 µM

## Cc1cccc(Nc2nc(-c3ccncc3NCCN3CCOCC3)cs2)c1
[3]
  Ratio IC50: 1.4
[1]; read-out: IC50
  IC50: 19.5 µM
[1]; read-out: pIC50 (converted)
  IC50: 19.5 µM
[2]
  IC50: 27.9 µM

## Cc1cccc(Nc2nc(-c3ccnc(-c4cccc5[nH]ccc45)c3)cs2)c1
[3]
  Ratio IC50: 1.5
[1]; read-out: IC50
  IC50: 3.1 µM
[1]; read-out: pIC50 (converted)
  IC50: 3.16 µM
[2]
  IC50: 4.5 µM

## Cc1cccc(Nc2nc(-c3ccncc3C#CCN3CCN(C)CC3)cs2)c1
[3]
  Ratio IC50: 0.9
[1]; read-out: IC50
  IC50: 2.6 µM
[1]; read-out: pIC50 (converted)
  IC50: 2.63 µM
[2]
  IC50: 2.2 µM

## Cc1cccc(Nc2nc(-c3ccnc(OCCN4CCOCC4)c3)cs2)c1
[3]
  Ratio IC50: 3
[1]; read-out: IC50
  IC50: 7 µM
[1]; read-out: pIC50 (converted)
  IC50: 7.08 µM
[2]
  IC50: 21.1 µM
